The text below walks through data of US8299077B2 (Roche Palo Alto LLC, priority 2009, dated 2012).

For the test, the system named is B cell receptor-mediated activation of B cells in human blood (CD69 expression). Kind of test: Inhibition of B cell activation in whole blood measured by CD69 expression. Conditions: anti-IgM stimulation, 20 h, 50% decrease of CD69-positive cells that are also CD20-positive. The test is classed as cell-based. The protocol: Inhibition of B Cell Activation in Whole Blood Measured by CD69 Expression
A procedure to test the ability of Btk inhibitors to suppress B cell receptor-mediated activation of B cells in human blood is as follows:
Human whole blood (HWB) is obtained from healthy volunteers, with the following restrictions: 24 hr drug-free, non-smokers. Blood is collected by venipuncture into Vacutainer tubes anticoagulated with sodium heparin. Test compounds are diluted to ten times the desired starting drug concentration in PBS (20×), followed by three-fold serial dilutions in 10% DMSO in PBS to produce a nine point dose-response curve. 5.5 μl of each compound dilution is added in duplicate to a 2 ml 96-well V bottom plate (Analytical Sales and Services, #59623-23); 5.5 μl of 10% DMSO in PBS is added to control and no-stimulus wells. HWB (100 μl) is added to each well, and after mixing the plates are incubated at 37 C, 5% CO2, 100% humidity for 30 minutes. Goat F(ab′)2 anti-human IgM (Southern Biotech, #2022-14) (10 μl of a 500 μg/ml solution, 50 μg/ml final concentration) is added to each well (except the no-stimulus wells) with mixing and the plates are incubated for an additional 20 hours.
At the end of the 20 hour incubation, samples are incubated with florescent-probe-labeled anti-bodies (15 μl PE Mouse anti-Human CD20, BD Pharmingen, #555623, and/or 20 ul APC Mouse anti-Human CD69, BD Pharmingen #555533) for 30 minutes, at 37 C, 5% CO2, 100% humidity. Included are induced control, unstained and single stains for compensation adjustments and initial voltage settings. Samples are then lysed with 1 ml of 1× Pharmingen Lyse Buffer (BD Pharmingen #555899), and plates are centrifuged at 1800 rpm for 5 minutes. Supernatants are removed via suction and the remaining pellets are lysed again with another 1 ml of 1× Pharmingen Lyse Buffer, and plates are spun down as before. Supernatants are aspirated and remaining pellets are washed in FACs buffer (PBS+1% FBS). After a final spin, the supernantants are removed and pellets are resuspended in 180 μl of FACs buffer. Samples are transferred to a 96 well plate suitable to be run on the HTS 96 well system on the BD LSR II flow cytometer.
Using appropriate excitation and emission wavelengths for the fluorophores used, data are acquired and percent positive cell values are obtained using Cell Quest Software. Results are initially analyzed by FACS analysis software (Flow Jo). […] The IC50 values are calculated using XLfit software version 3, equation 201.
With `Cn1cc(-c2cccc(-n3ccc4cc(C5CC5)cc(F)c4c3=O)c2CO)cc(Nc2ccc(C(C)(C)N)cn2)c1=O` [Example I-76, 2-(3-{5-[5-(1-Amino-1-methyl-ethyl)-pyridin-2-ylamino]-1-methyl-6-oxo-1,6-dihydro-pyridin-3-yl}-2-hydroxymethyl-phenyl)-6-cyclopropyl-8-fluoro-2H-isoquinolin-1-one], the IC50 (usually the concentration at which inhibition is half-maximal) came to 40 nM.
Under `CN1CCN(c2ccc(Nc3cc(-c4cccc(-n5ccc6cc(C(C)(C)O)cc(F)c6c5=O)c4CO)cn(C)c3=O)nc2)CC1` [Example I-59, 8-Fluoro-6-(1-hydroxy-1-methyl-ethyl)-2-(2-hydroxymethyl-3-{1-methyl-5-[5-(4-methyl-piperazin-1-yl)-pyridin-2-ylamino]-6-oxo-1,6-dihydro-pyridin-3-yl}-phenyl)-2H-isoquinolin-1-one] stands 3 nM.
The value for `Cn1cc(-c2cccc(-n3ccc4cc(C5CC5)cc(F)c4c3=O)c2CO)cc(Nc2ccc(OCCO)cn2)c1=O` [Example I-79, 6-Cyclopropyl-8-fluoro-2-(3-{5-[5-(2-hydroxy-ethoxy)-pyridin-2-ylamino]-1-methyl-6-oxo-1,6-dihydro-pyridin-3-yl}-2-hydroxymethyl-phenyl)-2H-isoquinolin-1-one] was 93 nM; that for `CN1CCN(C)C(c2ccc(Nc3nc(-c4cccc(-n5ncc6cc(C(C)(C)C)cc(F)c6c5=O)c4CO)cn(C)c3=O)cc2)C1=O` (centres unmarked) [Example I-89, 6-tert-Butyl-2-(3-{6-[4-(1,4-dimethyl-3-oxo-piperazin-2-yl)-phenylamino]-4-methyl-5-oxo-4,5-dihydro-pyrazin-2-yl}-2-hydroxymethyl-phenyl)-8-fluoro-2H-phthalazin-1-one] was 12 nM; that for `Cn1cc(-c2cccc(N3CCc4cc(C5CC5)cc(C#N)c4C3=O)c2CO)cc(Nc2ccc(S(C)(=O)=O)cn2)c1=O` [Example I-13, 6-Cyclopropyl-2-{2-hydroxymethyl-3-[5-(5-methanesulfonyl-pyridin-2-ylamino)-1-methyl-6-oxo-1,6-dihydro-pyridin-3-yl]-phenyl}-1-oxo-1,2,3,4-tetrahydro-isoquinoline-8-carbonitrile] was 4040 nM.
The value for `Cn1cc(-c2cccc(-n3ccc4cc(C5CC5)cc(F)c4c3=O)c2CO)cc(Nc2ccc(C(C)(C)O)cn2)c1=O` [Example I-72, 6-Cyclopropyl-8-fluoro-2-(2-hydroxymethyl-3-{5-[5-(1-hydroxy-1-methyl-ethyl)-pyridin-2-ylamino]-1-methyl-6-oxo-1,6-dihydro-pyridin-3-yl}-phenyl)-2H-isoquinolin-1-one] was 20 nM.
For `Cn1cc(-c2cccc(-n3ncc4cc(C(C)(C)C)cc(F)c4c3=O)c2CO)nc(Nc2cnn(CC(F)F)c2)c1=O` [Example I-84, 6-tert-Butyl-2-(3-{6-[1-(2,2-difluoro-ethyl)-1H-pyrazol-4-ylamino]-4-methyl-5-oxo-4,5-dihydro-pyrazin-2-yl}-2-hydroxymethyl-phenyl)-8-fluoro-2H-phthalazin-1-one], the IC50 was 20 nM.
Under `Cn1cc(-c2cccc(-n3ncc4cc(C(C)(C)C)cc(F)c4c3=O)c2CO)cc(Nc2ccc(C(C)(C)N)cn2)c1=O` [Example I-35, 2-(3-{5-[5-(1-Amino-1-methyl-ethyl)-pyridin-2-ylamino]-1-methyl-6-oxo-1,6-dihydro-pyridin-3-yl}-2-hydroxymethyl-phenyl)-6-tert-butyl-8-fluoro-2H-phthalazin-1-one] stands 28 nM; under `CCn1ccc(Nc2cc(-c3cccc(-n4ncc5cc(C(C)(C)C)cc(F)c5c4=O)c3CO)cn(C)c2=O)nc1=O` [Example I-37, 6-tert-Butyl-2-{3-[5-(1-ethyl-2-oxo-1,2-dihydro-pyrimidin-4-ylamino)-1-methyl-6-oxo-1,6-dihydro-pyridin-3-yl]-2-hydroxymethyl-phenyl}-8-fluoro-2H-phthalazin-1-one], 219 nM.
As to `CC(C)NCc1ccc(Nc2cc(-c3cccc(-n4ncc5cc(C(C)(C)C)cc(F)c5c4=O)c3CO)cn(C)c2=O)nc1` [Example I-43, 6-tert-Butyl-8-fluoro-2-(2-hydroxymethyl-3-{5-[5-(isopropylamino-methyl)-pyridin-2-ylamino]-1-methyl-6-oxo-1,6-dihydro-pyridin-3-yl}-phenyl)-2H-phthalazin-1-one], the IC50 came to 15 nM.
The value for `Cn1cc(-c2cccc(-n3ncc4cc(C(C)(C)C)cc(F)c4c3=O)c2CO)cc(Nc2ccc(N3CCNCC3)cn2)c1=O` [Example I-14, 6-tert-Butyl-8-fluoro-2-{2-hydroxymethyl-3-[1-methyl-6-oxo-5-(5-piperazin-1-yl-pyridin-2-ylamino)-1,6-dihydro-pyridin-3-yl]-phenyl}-2H-phthalazin-1-one] was 30 nM.
The value for `CNC(=O)C(C)(C)c1ccc(Nc2cc(-c3cccc(-n4ncc5cc(C(C)(C)C)cc(F)c5c4=O)c3CO)cn(C)c2=O)nc1` [Example I-32, 2-(6-{5-[3-(6-tert-Butyl-8-fluoro-1-oxo-1H-phthalazin-2-yl)-2-hydroxymethyl-phenyl]-1-methyl-2-oxo-1,2-dihydro-pyridin-3-ylamino}-pyridin-3-yl)-N-methyl-isobutyramide] was 34 nM; that for `CN1CC(Oc2ccc(Nc3cc(-c4cccc(-n5ncc6cc(C(C)(C)C)cc(F)c6c5=O)c4CO)cn(C)c3=O)nc2)C1` [Example I-30, 6-tert-Butyl-8-fluoro-2-(2-hydroxymethyl-3-{1-methyl-5-[5-(1-methyl-azetidin-3-yloxy)-pyridin-2-ylamino]-6-oxo-1,6-dihydro-pyridin-3-yl}-phenyl)-2H-phthalazin-1-one] was 10 nM.
As for `CCNCc1ccc(Nc2cc(-c3cccc(-n4ccc5cc(C6CC6)cc(F)c5c4=O)c3CO)cn(C)c2=O)nc1` [Example I-77, 6-Cyclopropyl-2-{3-[5-(5-ethylaminomethyl-pyridin-2-ylamino)-1-methyl-6-oxo-1,6-dihydro-pyridin-3-yl]-2-hydroxymethyl-phenyl}-8-fluoro-2H-isoquinolin-1-one], half-maximal inhibition (IC50) required 20 nM.
Under `Cn1cc(-c2cccc(-n3ncc4cc(C(C)(C)C)cc(F)c4c3=O)c2CO)cc(Nc2ccc(N3C[C@H]4CC[C@@H](C3)N4)cn2)c1=O` [Example I-87, 6-tert-Butyl-2-(3-{5-[(1S,5R)-5-(3,8-diaza-bicyclo[3.2.1]oct-3-yl)-pyridin-2-ylamino]-1-methyl-6-oxo-1,6-dihydro-pyridin-3-yl}-2-hydroxymethyl-phenyl)-8-fluoro-2H-phthalazin-1-one] stands 24 nM; under `CC(O)c1ccc(Nc2cc(-c3cccc(-n4ncc5cc(C(C)(C)C)cc(F)c5c4=O)c3CO)cn(C)c2=O)nc1` (centres unmarked) [Example I-36, 6-tert-Butyl-8-fluoro-2-(3-{5-[5-(1-hydroxy-ethyl)-pyridin-2-ylamino]-1-methyl-6-oxo-1,6-dihydro-pyridin-3-yl}-2-hydroxymethyl-phenyl)-2H-phthalazin-1-one], 59 nM.
`Cn1cc(-c2cccc(-n3ncc4cc(C(C)(C)C)cc(F)c4c3=O)c2CO)cc(Nc2ccc(OCCO)cn2)c1=O` [Example I-19] displayed an IC50 of 14 nM.
The value for `Cn1cc(-c2cccc(-n3ccc4cc(C(C)(C)C#N)cc(F)c4c3=O)c2CO)cc(Nc2ccc(OCCO)cn2)c1=O` [Example I-65, 2-[8-Fluoro-2-(3-{5-[5-(2-hydroxy-ethoxy)-pyridin-2-ylamino]-1-methyl-6-oxo-1,6-dihydro-pyridin-3-yl}-2-hydroxymethyl-phenyl)-1-oxo-1,2-dihydro-isoquinolin-6-yl]-2-methyl-propionitrile] was 19 nM; that for `CC1CCOC(Nc2cc(-c3cccc(-n4ncc5cc(C(C)(C)C)cc(F)c5c4=O)c3CO)cn(C)c2=O)=N1` (centres unmarked) [Example I-46, 6-tert-Butyl-8-fluoro-2-{2-hydroxymethyl-3-[1-methyl-5-(4-methyl-5,6-dihydro-4H-[1,3]oxazin-2-ylamino)-6-oxo-1,6-dihydro-pyridin-3-yl]-phenyl}-2H-phthalazin-1-one] was 4220 nM.
Under `Cn1cc(-c2cccc(-n3ccc4cc(C5CC5)cc(F)c4c3=O)c2CO)cc(Nc2ccc(N3CCC(C)(O)CC3)cn2)c1=O` [Example I-57, 6-Cyclopropyl-8-fluoro-2-{2-hydroxymethyl-3-[5-(4-hydroxy-4-methyl-3,4,5,6-tetrahydro-2H-[1,3′]bipyridinyl-6′-ylamino)-1-methyl-6-oxo-1,6-dihydro-pyridin-3-yl]-phenyl}-2H-isoquinolin-1-one] stands 18 nM.
